Results as given in patent US20030060469A1, “Use of substances that act as cascade inhibitors of the raf/mek/erk signal cascade, for producing a medicament to treat dna and rna viruses” (priority 2000, published 2003).
Like-named read-outs stand apart in the source and are kept apart here.

How the values were obtained:
[1] = mouse model; oral administration; up to a cumulating dose of 6 g/kg body weight; cited from earlier work
[2] = tested on: influenza A virus stem WSN-HK
MDCK cells = conditions: concentrations corresponding to the infection test (up to 50 μM), macroscopic examination and propidium iodide staining
[3] = tested on: Borna disease virus (BDV)

Compound | signs of toxicity [1] | reduction of the number of newly generated infectious virus particles in the cell culture medium [2] | cytotoxic effect on the cells (MDCK cells) | virus foci (spreading of BDV infection) ([3]; administration of 6 μM, compared to untreated infectious reference cells) | virus foci (spreading of BDV infection) ([3]; administration of 12.5 μM) | virus foci (spreading of BDV infection) ([3]; one-time administration of 25 μM, cultivation time of 7 days)
O=C(NOCC1CC1)c1ccc(F)c(F)c1Nc1ccc(I)cc1Cl [PD184352, 2-(2-chloro-4-iodo-phenylamino)-N-cyclopropyl-methoxy-3,4-difluoro-benzamide] | without showing any significant signs of toxicity | – | – | – | – | –
N#CC(=C(N)Sc1ccccc1N)C(C#N)=C(N)Sc1ccccc1N [U0126, 1,4-diamino-2,3-dicyano-1,4-bis[2-aminophenylthio]butadiene] | – | approx. 80% | neither solvent nor inhibitor have a significant cytotoxic effect on the cells | no difference of the virus foci | the effect is not clear anymore | no virus foci are visible
